Results on three compounds are retold here after patent publication US20150202181A1, “Method of and compounds for the reduction of alcoholic hangover” (priority 2014, published 2015).

For data set [1] the following is noted: after oral administration; cited from earlier work.
A further data set deals with rodents. Conditions: cited from earlier work.
Data set [2] has as its system acetaldehyde toxicity in rodents. The settings on record: cited from earlier work.
The conditions of data set [3]: NAC compared with ALA; cited from earlier work.
In another data set the test system is humans. The settings on record: cited from earlier work.
For data set [4], the system named is alcoholic hangover symptoms. As to the kind of experiment: Open-label and dose-finding studies in humans drinking alcoholic beverages.
For a further data set, the system named is aldehyde dehydrogenase. The settings on record: humans; cited from earlier work.
The conditions of data set [5]: chronic dosing for two years; cited from earlier work.

Entries after “also recorded” stand apart in the source; their conditions may differ. Some results are limits rather than exact numbers.

`N[C@@H](CS)C(=O)O` [L-cysteine]: the Oral absorption result in data set [1] is on record as “not well-absorbed; also recorded: poorly absorbed”.
As to `CC(=O)N[C@@H](CS)C(=O)O` [NAC, N-acetyl-L-cysteine], in the data set with rodents, the “LD50 (in words)” value was “very high”. Besides, in data set [2], the “Protective effect against acetaldehyde toxicity” value was “robust protective effects”. For the same compound, in data set [3], the “Relative solubility (water versus fat)” value is on record as “more water soluble”. Also, the “Outcome of high exposure” value with humans (human child, 8480 mg/kg over 72 hours) is listed as “survived with minor liver dysfunction”. In addition, the “Doses required to decrease alcohol hangover symptoms as monotherapy, compared with the combination” value in data set [4] was “much greater doses”.
On to `O=C(O)CCCC[C@@H]1CCSS1` [ALA, (R)-(+)-lipoic acid], for which the LD50 – broadly, the dose at which mortality reaches 50% – in the data set on rodents is recorded as greater than 2000 mg/kg. In data set [2], the “Protective effect against acetaldehyde toxicity” value is reported as “same effect”. Besides, the “Effect on aldehyde dehydrogenase activity” value in the data set with aldehyde dehydrogenase is “increasing aldehyde dehydrogenase activity”. The No-observed-effect level in data set [5] is on record as 60 mg/kg/day. For the same compound, the Tolerability result with humans (diabetics given 600 mg/day for four years) is “well-tolerated”. Besides, in data set [4], the “Doses required to decrease alcohol hangover symptoms as monotherapy, compared with the combination” value is “much greater doses”. Moreover, the “Dose that must be ingested for any noticeable reduction of alcohol hangover symptoms” value in data set [4] (monotherapy, ingested prior to imbibing alcoholic beverages) is on record as “at least 200 mg”.
